N#Cc1ccccc1-c1ccc(CBr)cc1
solubility (mole fraction)
Settings | 278.15 K | 283.15 K | 288.15 K | 293.15 K | 298.15 K | 303.15 K | 308.15 K | 313.15 K
in acetone | 0.0151 | 0.0169 | 0.0214 | 0.0241 | 0.0306 | 0.0352 | 0.0424 | 0.0492
in n-propanol | 0.00052 | 0.00075 | 0.00099 | 0.00126 | 0.00181 | 0.00226 | 0.0027 | 0.00343

— BigSolDB 2.1
